Measured values as given in PubChem BioAssay (NCI).
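In this assay, cells in 96-well plates receive the compound at five concentrations for 48 hours. Endpoints are linearly interpolated between the surrounding concentrations. At the GI50, growth is halved. Definition used: TGI = concentration required for complete inhibition of growth.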

Columns and labels:
Test in all cases: NCI-60 cell line screen, 48 h; in the data active = GI50 below about 0.43 µM; inactive = the rest
[1] = test system: 786-0 renal
[2] = test system: A498 renal
[3] = test system: A549 NSCLC
[4] = test system: ACHN renal
[5] = test system: BT-549 breast
[6] = test system: CAKI-1 renal
[7] = test system: CCRF-CEM leukemia
[8] = test system: COLO 205 colon
[9] = test system: DU-145 prostate
[10] = test system: EKVX NSCLC
[11] = test system: HCC-2998 colon
[12] = test system: HCT-116 colon
[13] = test system: HCT-15 colon
[14] = test system: HL-60(TB) leukemia
[15] = test system: HOP-62 NSCLC
[16] = test system: HOP-92 NSCLC
[17] = test system: HS 578T breast
[18] = test system: HT29 colon
[19] = test system: IGROV1 ovarian
[20] = test system: K-562 leukemia
[21] = test system: KM12 colon
[22] = test system: LOX IMVI melanoma
[23] = test system: M14 melanoma
[24] = test system: MALME-3M melanoma
[25] = test system: MCF7 breast
[26] = test system: MDA-MB-231 breast
[27] = test system: MDA-MB-435
[28] = test system: MDA-MB-468 breast
[29] = test system: MOLT-4 leukemia
[30] = test system: NCI-H226 lung
[31] = test system: NCI-H23 lung
[32] = test system: NCI-H460 lung
[33] = test system: NCI-H522 lung
[34] = test system: NCI/ADR-RES ovarian
[35] = test system: OVCAR-3 ovarian
[36] = test system: OVCAR-4 ovarian
[37] = test system: OVCAR-5 ovarian
[38] = test system: OVCAR-8 ovarian
[39] = test system: PC-3 prostate
[40] = test system: RPMI-8226 leukemia
[41] = test system: RXF 393 renal
[42] = test system: SF-268 CNS
[43] = test system: SF-295 CNS
[44] = test system: SF-539 CNS
[45] = test system: SK-MEL-2 melanoma
[46] = test system: SK-MEL-28 melanoma
[47] = test system: SK-MEL-5 melanoma
[48] = test system: SK-OV-3 ovarian
[49] = test system: SN12C renal
[50] = test system: SNB-19 CNS
[51] = test system: SNB-75 CNS
[52] = test system: SR leukemia
[53] = test system: SW-620 colon
[54] = test system: T-47D breast
[55] = test system: TK-10 renal
[56] = test system: U251 CNS
[57] = test system: UACC-257 melanoma
[58] = test system: UACC-62 melanoma
[59] = test system: UO-31 renal

O=C1CCC(N2Cc3c(C#CCCCNC(=O)c4ccc(NC(=O)[C@@H]5NC6(CCCCC6)[C@@]6(C(=O)Nc7cc(Cl)ccc76)[C@H]5c5cccc(Cl)c5F)cc4)cccc3C2=O)C(=O)N1 (stereo partly specified)
> 100 µM: TGI [1] | TGI [2] | TGI [3] | TGI [4] | TGI [5] | TGI [6] | TGI [7] | TGI [8] | TGI [9] | TGI [10] | TGI [11] | TGI [12] | TGI [13] | TGI [14] | TGI [15] | TGI [16] | TGI [17] | TGI [18] | TGI [20] | TGI [21] | TGI [22] | TGI [23] | TGI [26] | TGI [27] | TGI [31] | TGI [32] | TGI [33] | TGI [34] | TGI [35] | TGI [37] | TGI [38] | TGI [39] | TGI [40] | TGI [42] | TGI [43] | TGI [44] | TGI [45] | TGI [46] | TGI [48] | TGI [49] | TGI [50] | TGI [53] | TGI [54] | TGI [55] | TGI [56] | TGI [57] | TGI [58] | TGI [59]
> 74.5 µM: TGI [30]
97.5 µM: TGI [36]
active: GI50 [24] 0.159 µM | GI50 [30] 0.2 µM | GI50 [52] 0.25 µM
3.11 µM: TGI [52]
inactive: GI50 [1] 35.2 µM | GI50 [2] 25.7 µM | GI50 [3] 1.04 µM | GI50 [4] 3.86 µM | GI50 [5] 13.1 µM | GI50 [6] 1.2 µM | GI50 [7] 11.6 µM | GI50 [8] 72 µM | GI50 [9] > 100 µM | GI50 [10] 8.32 µM | GI50 [11] 9.57 µM | GI50 [12] 2.45 µM | GI50 [13] 7.72 µM | GI50 [14] 6.77 µM | GI50 [15] > 100 µM | GI50 [16] 5.27 µM | GI50 [17] 4.3 µM | GI50 [18] 25.2 µM | GI50 [19] 1.76 µM | GI50 [20] 65 µM | GI50 [21] 9.18 µM | GI50 [22] 0.953 µM | GI50 [23] 75 µM | GI50 [26] 15.4 µM | GI50 [27] 31.8 µM | GI50 [28] 4.38 µM | GI50 [31] > 88 µM | GI50 [32] 2.09 µM | GI50 [33] > 89.9 µM | GI50 [34] > 100 µM | GI50 [35] 15.8 µM | GI50 [36] 7.28 µM | GI50 [37] > 53.2 µM | GI50 [38] > 100 µM | GI50 [39] 7.52 µM | GI50 [40] 4.16 µM | GI50 [41] 5.81 µM | GI50 [42] 26 µM | GI50 [43] 10.8 µM | GI50 [44] 12.9 µM | GI50 [45] > 100 µM | GI50 [46] 96.8 µM | GI50 [47] 2.33 µM | GI50 [48] > 95.6 µM | GI50 [49] > 78.2 µM | GI50 [50] > 50.1 µM | GI50 [51] 2.5 µM | GI50 [53] > 100 µM | GI50 [54] 6.68 µM | GI50 [55] > 75.9 µM | GI50 [56] 9.5 µM | GI50 [57] 9.03 µM | GI50 [58] 0.445 µM | GI50 [59] 3.04 µM
> 79 µM: TGI [41]
> 35.7 µM: TGI [28]
> 49.8 µM: TGI [25]
20 µM: TGI [24]
> 72.1 µM: TGI [51]
> 44 µM: TGI [19]
1.43 µM: TGI [29]
> 40.2 µM: TGI [47]
